Biological target: T1, Alpha-2C adrenergic receptor (Rattus norvegicus, UniProt P22086)
T1 sequence (P22086 whole entry): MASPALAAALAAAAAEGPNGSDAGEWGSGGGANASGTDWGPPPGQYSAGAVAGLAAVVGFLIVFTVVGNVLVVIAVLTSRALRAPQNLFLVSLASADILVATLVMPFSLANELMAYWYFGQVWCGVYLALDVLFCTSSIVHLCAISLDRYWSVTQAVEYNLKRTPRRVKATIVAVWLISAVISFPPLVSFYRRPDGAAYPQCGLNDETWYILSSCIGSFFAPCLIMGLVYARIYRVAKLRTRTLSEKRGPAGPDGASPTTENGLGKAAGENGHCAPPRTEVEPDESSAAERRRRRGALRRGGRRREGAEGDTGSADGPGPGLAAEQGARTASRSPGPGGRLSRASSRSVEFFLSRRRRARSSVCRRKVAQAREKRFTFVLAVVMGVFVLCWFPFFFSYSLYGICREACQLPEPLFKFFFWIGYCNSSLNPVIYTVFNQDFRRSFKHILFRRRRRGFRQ

## Fc1cccc2c1OC1CNCC1O2 (stereo unspecified) [CAS_105182-45-4]
  Ki: 0.5 nM
